In ChEMBL document CHEMBL4680171, “Oxadiazolylthiazoles as novel and selective antifungal agents” (Eur J Med Chem, 2020):
Values after ≈ are worked out from the molar mass of the structure shown. Active and inactive are the calls of the source. The calls are words filed in the database; no cut-off is given here.

Key:
Escherichia coli = assay: Antibacterial activity against Escherichia coli JW55031 harboring tolC mutation assessed as reduction in bacterial growth by CLSI based broth microdilution method; format: functional
Candida albicans [1] = assay: Fungistatic activity against Candida albicans SS5314 at 5 to 10x MIC measured for 36 hrs by time kill assay; format: functional, organism-based
Candida albicans [2] = assay: Antifungal activity against Candida albicans SS5314 assessed as reduction in fungal growth measured after 10 passages by CLSI based broth microdilution method; format: functional, organism-based
[3] = Selectivity index, ratio of maximum non-toxic concentration for human Caco-2 cells to MIC for antifungal activity against Cryptococcus gattii NR43209; format: toxicity; settings: read-out: Selectivity Index
[4] = Selectivity index, ratio of CC50 for African green monkey Vero cells to MIC for antifungal activity against Cryptococcus neoformans NR41300; format: toxicity; settings: read-out: Selectivity Index
[5] = Cytotoxicity against African green monkey Vero cells assessed as reduction in cell viability incubated for 2 hrs by MTS assay; format: cell-based; settings: chlorocebus sabaeus
Cryptococcus neoformans [6] = assay: Antifungal activity against Cryptococcus neoformans NR41298 assessed as reduction in fungal growth incubated for 48 hrs by CLSI based broth microdilution method; format: functional
Nakaseomyces glabratus = assay: Antifungal activity against Candida glabrata ATCC MYA-2950 assessed as reduction in fungal growth incubated for 24 hrs by CLSI based broth microdilution method; format: functional
[7] = Selectivity index, ratio of CC50 for African green monkey Vero cells to MIC for antifungal activity against Candida parapsilosis ATCC 22019; format: toxicity; settings: read-out: Selectivity Index
Staphylococcus aureus = assay: Antibacterial activity against methicillin resistant Staphylococcus aureus subsp. aureus USA300 assessed as reduction in bacterial growth by CLSI based broth microdilution method; format: functional
[8] = Selectivity index, ratio of CC50 for African green monkey Vero cells to MIC for antifungal activity against Candida glabrata ATCC 66032; format: toxicity; settings: read-out: Selectivity Index
[9] = Selectivity index, ratio of CC50 for African green monkey Vero cells to MIC for antifungal activity against Aspergillus fumigatus NR 35303; format: toxicity; settings: read-out: Selectivity Index
Cryptococcus neoformans [10] = assay: Antifungal activity against Cryptococcus neoformans NR48770 assessed as reduction in fungal growth incubated for 48 hrs by CLSI based broth microdilution method; format: functional
[11] = Selectivity index, ratio of CC50 for African green monkey Vero cells to MIC for antifungal activity against Candida krusei ATCC 34135; format: toxicity; settings: read-out: Selectivity Index
[Candida] auris = Antifungal activity against fluconazole-resistant Candida auris 384 assessed as reduction in fungal growth incubated for 24 hrs by CLSI based broth microdilution method; format: functional; settings: Candidozyma auris
Candida parapsilosis = assay: Antifungal activity against Candida parapsilosis ATCC 22019 assessed as reduction in fungal growth incubated for 24 hrs by CLSI based broth microdilution method; format: functional; settings: Lodderomyces parapsilosis
[12] = Selectivity index, ratio of maximum non-toxic concentration for human Caco-2 cells to MIC for antifungal activity against Cryptococcus neoformans NR41298; format: toxicity; settings: read-out: Selectivity Index

## Cc1nc(-c2ccc(C(C)(C)C)cc2)sc1-c1nnc(N[C@@H]2CCCC[C@@H]2N)o1 (relative stereo)
Escherichia coli
  MIC: > 64 µg/mL
Candida albicans [1]
  Activity: Active
Candida albicans [2]
  Activity: Active
[3]
  selectivity ratio: ≤ 64
[4]
  selectivity ratio: ≤ 64
[5]
  CC50 at 2 h: > 64 µg/mL
Cryptococcus neoformans [6]
  MIC: 2 µg/mL (≈ 4.86 µM)
Nakaseomyces glabratus
  MIC: 0.125 µg/mL (≈ 0.304 µM)
[7]
  selectivity ratio: ≤ 64
Staphylococcus aureus
  MIC: > 64 µg/mL
[8]
  selectivity ratio: ≤ 64
[9]
  selectivity ratio: ≤ 64
Cryptococcus neoformans [10]
  MIC: 1 µg/mL (≈ 2.43 µM)
[11]
  selectivity ratio: ≤ 64
[Candida] auris
  MIC: 4 µg/mL (≈ 9.72 µM)
Candida parapsilosis
  MIC: 1 µg/mL (≈ 2.43 µM)
[12]
  selectivity ratio: ≤ 64
